From the NIST ThermoML archive (doi:10.1016/j.jct.2011.02.008)

Experiment: xn = mol fraction of the nth substance listed
Settings: Liquid, Vibrating tube method

COC(=O)c1ccccc1 [methyl benzoate] + C1CCCCC1
mass density [kg/m3]
Settings	x1 = 0.0985	x1 = 0.1963	x1 = 0.2939	x1 = 0.3942	x1 = 0.4955	x1 = 0.596	x1 = 0.6975	x1 = 0.7993	x1 = 0.8982
318.15 K, 30000 kPa	–	–	873.9	905.1	936.2	967.6	997.8	1026.6	1054.7
318.15 K, 35000 kPa	815.3	846.3	877.5	908.6	939.6	971	1001	1029.7	1057.8
318.15 K, 40000 kPa	818.8	849.9	880.9	912	942.9	974.2	1004.1	1032.7	1060.7
318.15 K, 45000 kPa	822.2	853.2	884.3	915.2	946.1	977.3	1007.1	1035.7	1063.6
318.15 K, 50000 kPa	825.5	856.5	887.5	918.4	949.2	980.3	1010.1	1038.6	1066.5
318.15 K, 55000 kPa	828.7	859.7	890.6	921.5	952.3	983.3	1013	1041.5	1069.3
318.15 K, 60000 kPa	831.6	862.5	893.4	924.3	955.1	986	1015.7	1044.1	1071.8
328.15 K, 100 kPa	776	807.7	839.6	871.6	903.6	935.6	966.7	996.3	1025.1
328.15 K, 1000 kPa	777	808.7	840.5	872.5	904.4	936.4	967.4	997	1025.8
328.15 K, 5000 kPa	781.2	812.7	844.5	876.3	908.1	939.9	970.6	1000.2	1028.9
328.15 K, 10000 kPa	786.2	817.6	849.2	880.4	912.3	944.1	974.8	1004	1032.6
328.15 K, 15000 kPa	790.7	822.1	853.6	885.1	916.5	948.1	978.6	1007.7	1036.2
328.15 K, 20000 kPa	795.2	826.5	857.8	889.2	920.5	951.9	982.3	1011.3	1039.7
328.15 K, 25000 kPa	799.4	830.6	861.8	893.1	924.3	955.6	985.9	1014.7	1043
328.15 K, 30000 kPa	803.4	834.5	865.7	896.9	928	959.2	989.4	1018.1	1046.3
328.15 K, 35000 kPa	807.3	838.3	869.4	900.5	931.5	962.7	992.7	1021.4	1049.4
328.15 K, 40000 kPa	811	842	873	904.1	935	966	996	1024.5	1052.5
328.15 K, 45000 kPa	814.6	845.5	876.5	907.5	938.3	969.3	999.1	1027.6	1055.5
328.15 K, 50000 kPa	818	848.9	879.8	910.8	941.5	972.5	1002.2	1030.7	1058.5
328.15 K, 55000 kPa	821.3	852.2	883.1	914	944.7	975.6	1005.3	1033.6	1061.4
328.15 K, 60000 kPa	824.3	855.5	886.1	916.9	947.6	978.3	1008	1036.3	1064.2
338.15 K, 100 kPa	766.2	798	829.9	861.9	893.9	926	957	986.6	1015.6
338.15 K, 1000 kPa	767.2	799	830.9	862.8	894.7	926.8	957.8	987.4	1016.3
338.15 K, 5000 kPa	771.8	803.4	835.1	866.9	898.7	930.5	961.3	990.8	1019.6
338.15 K, 10000 kPa	777	808.5	840	871.6	903.2	934.9	965.6	994.9	1023.5
338.15 K, 15000 kPa	782	813.3	844.7	876.2	907.6	939.2	969.6	998.8	1027.2
338.15 K, 20000 kPa	786.7	817.9	849.2	880.5	911.8	943.2	973.5	1002.5	1030.8
338.15 K, 25000 kPa	791.1	822.3	853.4	884.6	915.8	946.9	977.3	1006.2	1034.4
338.15 K, 30000 kPa	795.4	826.4	857.5	888.6	919.6	950.8	980.9	1009.7	1037.8
338.15 K, 35000 kPa	799.4	830.4	861.4	892.4	923.4	954.5	984.4	1013.1	1040.9
338.15 K, 40000 kPa	803.3	834.2	865.2	896.1	927	958	987.8	1016.4	1044.3
338.15 K, 45000 kPa	807	837.9	868.8	899.6	930.4	961.4	991.1	1019.6	1047.5
338.15 K, 50000 kPa	810.6	841.5	872.3	903.1	933.8	964.7	994.4	1022.8	1050.5
338.15 K, 55000 kPa	814.1	844.9	875.7	906.4	937.1	967.9	997.5	1025.8	1053.6
338.15 K, 60000 kPa	817.3	848.1	878.8	909.7	940.1	971.1	1000.4	1028.6	1056.3
348.15 K, 100 kPa	756.3	788.1	820	852.1	884.1	916.3	947.3	976.9	1005.9
348.15 K, 1000 kPa	757.4	789.2	820.9	853	885	917.1	948.1	977.7	1006.7
348.15 K, 5000 kPa	762.1	793.8	825.6	857.4	889.1	921.1	951.8	981.3	1010.1
348.15 K, 10000 kPa	767.9	799.3	830.9	862.4	894	925.8	956.3	985.5	1014.3
348.15 K, 15000 kPa	773.1	804.4	835.8	867.2	898.6	930.2	960.6	989.7	1018.2
348.15 K, 20000 kPa	778.1	809.3	840.5	871.8	903.1	934.4	964.7	993.6	1022
348.15 K, 25000 kPa	782.8	813.9	845	876.1	907.3	938.5	968.7	997.5	1025.7
348.15 K, 30000 kPa	787.2	818.2	849.3	880.3	911.3	942.4	972.5	1001.1	1029.3
348.15 K, 35000 kPa	791.5	822.4	853.4	884.2	915.2	946.2	976.1	1004.7	1032.7
348.15 K, 40000 kPa	795.5	826.4	857.3	888.1	918.9	949.9	979.7	1008.2	1036.1
348.15 K, 45000 kPa	799.5	830.3	861.1	891.8	922.6	953.4	983.2	1011.5	1039.4
348.15 K, 50000 kPa	803.2	834	864.7	895.4	926.1	956.9	986.5	1014.8	1042.5
348.15 K, 55000 kPa	806.8	837.6	868.3	898.9	929.5	960.2	989.8	1018	1045.7
348.15 K, 60000 kPa	810.1	840.9	871.4	902.1	932.6	963.3	992.7	1020.9	1048.5
358.15 K, 100 kPa	746	778	809.9	842	874.1	906.3	937.3	967	996.1
358.15 K, 1000 kPa	747.1	779.1	811	843.1	875.1	907.3	938.3	967.9	996.9
358.15 K, 5000 kPa	752.5	784.2	815.9	847.7	879.4	911.4	942	971.7	1000.6
358.15 K, 10000 kPa	757.8	790	821.5	853.1	884.7	916.4	947	976.2	1004.9
358.15 K, 15000 kPa	764.1	795.5	826.7	858.2	889.6	921.1	951.4	980.6	1009
358.15 K, 20000 kPa	769.4	800.6	831.8	863	894.2	925.6	955.8	984.7	1013
358.15 K, 25000 kPa	774.3	805.5	836.5	867.6	898.6	929.9	960	988.7	1016.9
358.15 K, 30000 kPa	779	810	841	871.8	902.9	934	963.9	992.6	1020.6
358.15 K, 35000 kPa	783.5	814.4	845.3	876.1	907	938	967.8	996.3	1024.2
358.15 K, 40000 kPa	787.7	818.6	849.4	880.1	910.9	941.8	971.5	999.9	1027.8
358.15 K, 45000 kPa	791.8	822.6	853.3	884	914.7	945.5	975.1	1003.4	1031.2
358.15 K, 50000 kPa	795.7	826.5	857.1	887.8	918.3	949	978.6	1006.8	1034.5
358.15 K, 55000 kPa	799.5	830.2	860.8	891.4	921.9	952.5	982	1010.1	1037.8
358.15 K, 60000 kPa	802.9	832.8	864.2	894.6	925.1	955.7	985	1013.1	1040.9
